# Experimental data reported in patent US20190290726A1, “PROTEIN POLYMER FUSIONS FOR SUBCUTANEOUS DELIVERY OF SMALL MOLECULES” (University of Southern California, priority 2016, published 2019).
# “Also recorded” adds a separate entry of the source.
# Key:
# [1] = system: MDA-MB-468 breast cancer xenograft; assay: In vivo tumor regression study, subcutaneous administration; details: 0.75 mg/kg
# Source text: Since there was no statistical difference in efficacy observed between FSI-Rapa and FAF-Rapa intravenously, Applicants next employed SC route of administration in the same MDA-MB-468 xenograft mouse model (FIGS. 5A-5H). The rationale behind exploring SC route was to distinguish the uptake and bio distribution of different FKBP-ELPs from the site of injection into the systemic circulation. […] SC route further presents a convenient administration method compared to IV route with more clinical relevance and has been FDA approved for monoclonal antibodies and biotherapeutics.
# The comparative tumor regression study consisted of 5 groups: PBS, Free Rapa, FAF-Rapa, FA-Rapa, and FSI-Rapa at the same maximum tolerated dose of 0.75 mg/kg (n=6-8/group). All treatments were done subcutaneously in the right flank above the hind leg. […] Because of the toxic side effects, mice were thereafter treated with free Rapa in DMSO:EtOH:Cremophore-EL:PBS formulation in 1:1:2:6% v/v ratio. […] However, the mice gradually gained back the lost BW which enabled us to continue the treatment with the Cremophore formulation. To prevent further local discomfort to mice, a different site of injection was chosen each time spanning the entire flank region for free Rapa injections. […] There was no local bruising or scabs observed with any of the FKBP-ELP-Rapa formulations which made the treatment easier and at the same site of injection throughout the study.
# All animal experiments were conducted as per the guidelines of the American Association of Laboratory Animal Care under an USC approved protocol. MDA-MB-468 cells (American Type Tissue Culture Collection) were cultured at 37° C. with 5% CO2 in Dulbecco's modified Eagle's medium (DMEM)/Ham's F-12 media (Caisson) supplemented with 10% fetal bovine serum. The cells were sent for screening against all major mouse pathogens and human blood borne pathogens (Charles River) prior to implantation. A single injection of MDA-MB-468 cells (1-2×10^6 cells in 100 μL fetal bovine serum free DMEM media) was implanted into the left mammary fat pad of 7-8 weeks old female nude (nu/nu) athymic mice (Harlan, Inc.) Tumors were allowed to grow to a size of ˜50-100 mm^3 and mice were randomized blindly into respective groups before start of treatment. […] BW and tumor size were measured thrice a week on the same day of injections. Tumor size was measured using Vernier calipers and tumor volume was calculated using the following equation:
# where a and b represents smaller and bigger length respectively. […] Tumor burden was calculated by determining the trapezoidal area under the growth curve for each mouse by using the following equation: […]
# [2] = cited from earlier work
smiles,measurement,setting,value
"CO[C@H]1C[C@@H]2CC[C@@H](C)[C@@](O)(O2)C(=O)C(=O)N2CCCC[C@H]2C(=O)O[C@H]([C@H](C)C[C@@H]2CC[C@@H](O)[C@H](OC)C2)CC(=O)[C@H](C)/C=C(\C)[C@@H](O)[C@@H](OC)C(=O)[C@H](C)C[C@H](C)/C=C/C=C/C=C/1C [Free Rapa, (3S,6R,7E,9R,10R,12R,14S,15E,17E,19E,21S,23S,26R,27R,34aS)-9,10,12,13,14,21,22,23,24,25,26,27,32,33,34,34a-hexadecahydro-9,27-dihydroxy-3-[(1R)-2-[(1S,3R,4R)-4-hydroxy-3-methoxycyclohexyl]-1-methylethyl]-10,21-dimethoxy-6,8,12,14,20,26-hexamethyl-23,27-epoxy-3H-pyrido[2,1-c][1,4]-oxaazacyclohentriacontine-1,5,11,28,29(4H,6H,31H)-pentone]",tumor burden compared to PBS group,"[1]; SC, Tukey post hoc, last day of treatment (day 50)",statistically significance compared to PBS group; also recorded: significantly lower compared to PBS
same,Kaplan-Meier survival analysis,"[1]; SC, endpoint 4 times increase in tumor volume",better anti-tumor efficacy than other groups
same,drop in BW,"[1]; mouse, in vivo, sc",10%
same,"toxicity, local toxicity at the site of injection","[1]; mouse, in vivo, sc",considerable local toxicity at site of subcutaneous injection
same,aqueous solubility,[2],~10 µM
